# Test results from patent US9464066B2, “Deuterated compounds useful for treating neurodegenerative diseases” (PharmatrophiX, Inc., priority 2009, dated 2016).
# System: hippocampal neurons
# Experiment: Measurement of activity relative to BDNF: prevention of degeneration of hippocampal neurons
# Assay type: cell-based
# Details: hippocampal neurons from embryological day 16 mice, assessed 48 hours following cell seeding; BDNF maximum defined as 100%; baseline (CM) approximately 40%
# Method: Compounds of the present application are tested for their ability to prevent the degeneration of hippocampal neurons as described in Massa et al J Neurosci. (2006) 26(20):5288-300. In brief, hippocampal neurons are isolated from embryological day 16 mice and seeded in 96-well tissue culture plates under conditions in which they degenerated in the absence of neurotrophin receptor ligands. Neuronal degeneration is assessed using morphological criteria 48 hours following cell seeding. The neurotrophins brain-derived neurotrophic factor (BDNF) and nerve growth factor (NGF) serve as positive controls. The maximum cell death preventing activity of BDNF is defined as 100% neurotrophic activity. The efficacy of NGF is 80% of that of BDNF. The neurotrophic activity of the test compounds at each applied concentration is quantitated in terms of a percentage of the maximum BDNF-supported survival level. In the presence of culture medium (CM) and the absence of BDNF or compounds, survival is approximately 40% of the BDNF maximum effect and this is regarded as baseline survival. For each compound, dose-response curves are generated and the EC50 and maximum survival percentage are derived.
substance,measurement,value
"NGF: neurotrophin nerve growth factor, serves as positive control in the hippocampal neuron survival assay",efficacy (neurotrophic activity as percentage of the maximum BDNF-supported survival),80%
